According to ChEMBL document CHEMBL1153581, “Synthesis, antiviral and anticancer activity of some novel thioureas derived from N-(4-nitro-2-phenoxyphenyl)-methanesulfonamide” (Eur J Med Chem, 2009):
Converted amounts (≈) assume the structure as drawn.

System: Vaccinia virus
Assay: Antiviral activity against Vaccinia virus infected in human HEL cells assessed as protection against virus-induced cytopathogenicity
Format: functional
Details: Orthopoxvirus vaccinia

| Structure (SMILES) | MIC50 |
| --- | --- |
| CS(=O)(=O)Nc1ccc(NC(=S)NCCc2ccccc2)cc1Oc1ccccc1 | > 8 µg/mL |
| Nc1nc2c(ncn2COCCO)c(=O)[nH]1 [ACYCLOVIR] | > 250 µg/mL |
| CS(=O)(=O)Nc1ccc(NC(=S)NCCc2ccc(Cl)cc2)cc1Oc1ccccc1 | > 100 µg/mL |
| CCNC(=S)Nc1ccc(NS(C)(=O)=O)c(Oc2ccccc2)c1 | 40 µg/mL (≈ 109 µM) |
| CCCNC(=S)Nc1ccc(NS(C)(=O)=O)c(Oc2ccccc2)c1 | > 40 µg/mL |
| O=c1[nH]c(=O)n([C@H]2C[C@H](O)[C@@H](CO)O2)cc1/C=C/Br [BRIVUDINE] | 2 µg/mL (≈ 6 µM) |
| Nc1nc2c(ncn2COC(CO)CO)c(=O)[nH]1 [GANCICLOVIR] | 100 µg/mL (≈ 392 µM) |
| C=CCNC(=S)Nc1ccc(NS(C)(=O)=O)c(Oc2ccccc2)c1 | > 40 µg/mL |
| CNC(=S)Nc1ccc(NS(C)(=O)=O)c(Oc2ccccc2)c1 | 100 µg/mL (≈ 285 µM) |
| CS(=O)(=O)Nc1ccc(NC(=S)NC2CCCCC2)cc1Oc1ccccc1 | > 8 µg/mL |
| NC(=O)c1ncn([C@@H]2O[C@H](CO)[C@@H](O)[C@H]2O)n1 [RIBAVIRIN] | 150 µg/mL (≈ 614 µM) |
| CS(=O)(=O)Nc1ccc(NC(=S)Nc2ccc([N+](=O)[O-])cc2)cc1Oc1ccccc1 | 8 µg/mL (≈ 17.4 µM) |
| CS(=O)(=O)Nc1ccc(NC(=S)NCc2ccccc2)cc1Oc1ccccc1 | > 8 µg/mL |
